Laboratory results: US20020137929A1, “1 - (3-heterocyclylphenyl) isothiourea, -isourea, -guanidine and -amidine herbicidal agents” (Intellectual Property Department, BASF Aktiengesellschaft, priority 1998, published 2002)

How the values were obtained:
[1] = test system: CASOB (Sicklepod); test: Preemergence herbicidal evaluation; assay type: in vivo, Cassia obtusifolia; conditions: rated 4-5 weeks after treatment
How it was run: (§1)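 Visual 0-9 rating vs control (stand, vigor, malformation, size, chlorosis, overall appearance), scored 4-5 wk after spraying. Seeded soil cups were treated preemergence with compound in aqueous acetone, ~0.0156-0.500 kg/ha equivalent.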

[2] = test system: ZEAMX (Corn, Field); test: Preemergence herbicidal evaluation; assay type: in vivo, Zea mays; conditions: rated 4-5 weeks after treatment
How it was run: as §1

[3] = test system: CYPIR (Rice Flatsedge); test: Preemergence weed control under flooded paddy conditions; assay type: in vivo, Cyperus iria; conditions: rated 3-4 weeks after treatment
How it was run: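 Herbicidal effect is scored visually on a 0-9 scale against an untreated control, three to four weeks after compounds are pipetted into the flood water (1.5 to 3 cm deep) over seeds planted in silt loam at 0.5 cm depth. Rates: about 0.0313 to 0.500 kg/ha.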

[4] = test system: CHEAL (Lambsquarters, Common); test: Postemergence herbicidal evaluation; assay type: in vivo, Chenopodium album
How it was run: (§2)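 ~2-wk seedlings; postemergence spray, 40 psi; vehicle 1:1 acetone:water + 0.5% Tween 20; rate ≈0.0156–0.500 kg/ha; greenhouse hold; scored 4–5 wk after treatment, 0–9 scale vs control; repeat tests averaged.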

[5] = test system: GLXMAW (Soybean, Williams); test: Postemergence herbicidal evaluation; assay type: in vivo, Glycine max, (L.) Merr. cv Williams
How it was run: as §2

[6] = test system: CYPSE (Flatsedge); test: Postemergence weed control under flooded paddy conditions; assay type: in vivo, Cyperus serotinus; conditions: postemergence weeds, rated 3 to 4 weeks after treatment
How it was run: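 Herbicidal effect is judged by eye on a 0–9 scale versus control, 3–4 weeks after dosing. Dosing is into flood water kept 1.5–3 cm over the soil, at about 0.0313–0.500 kg/ha in aqueous/acetone 50/50 v/v, on 3–5 cm weeds and 1.5–2.5-leaf rice seedlings.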

[7] = test system: AMBEL (Ragweed, Common); test: Postemergence herbicidal evaluation; assay type: in vivo, Ambrosia artemisifolia
How it was run: as §2

[8] = test system: ECHCG (Barnyardgrass); test: Postemergence herbicidal evaluation; assay type: in vivo, Echinochloa crus-galli
How it was run: as §2

[9] = test system: ORYSAT (Rice, Tebonnet); test: Postemergence herbicidal evaluation; assay type: in vivo, Oryza sativa, (L.) Tebonnet
How it was run: as §2

[10] = test system: GALAP (Galium); test: Postemergence herbicidal evaluation; assay type: in vivo, Galium aparine
How it was run: as §2

[11] = test system: GALAP (Galium); test: Preemergence herbicidal evaluation; assay type: in vivo, Galium aparine; conditions: rated 4-5 weeks after treatment
How it was run: as §1

[12] = test system: CYPSE (Flatsedge); test: Preemergence weed control under flooded paddy conditions; assay type: in vivo, Cyperus serotinus; conditions: rated 3-4 weeks after treatment
How it was run: (§3)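 Silt loam, seeds in top 0.5 cm; flood held 1.5-3 cm; test cpd as acetone/water 50/50 into flood water, ~0.0313-0.500 kg/ha a.i.; greenhouse 3-4 wk; visual 0-9 score vs control.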

[13] = test system: CASOB (Sicklepod); test: Postemergence herbicidal evaluation; assay type: in vivo, Cassia obtusifolia
How it was run: as §2

[14] = test system: SAGPY (Arrowhead (Pygmaea)); test: Preemergence weed control under flooded paddy conditions; assay type: in vivo, Sagittaria pygmaea; conditions: rated 3-4 weeks after treatment
How it was run: as §3

[15] = test system: SETVI (Foxtail, Green); test: Postemergence herbicidal evaluation; assay type: in vivo, Setaria viridis
How it was run: as §2

C=CCN1C(=O)C(CC(=O)O)SC1=Nc1cc(-n2c(=O)cc(C(F)(F)F)n(C)c2=O)c(F)cc1Cl (stereo not shown) [Compound 62, 3-Allyl-2-{{2-chloro-5-[3,6-dihydro-3-methyl-2,6-dioxo-4-(trifluoromethyl)-1(2H)-pyrimidinyl]-4-fluorophenyl}imino}-4-oxo-5-thiazolidineacetic acid]
Preemergence herbicidal rating CASOB ([1]; rate 0.0156 kg/ha): 0.0 | Preemergence herbicidal rating CASOB ([1]; rate 0.0313 kg/ha): 0.0 | Preemergence herbicidal rating CASOB ([1]; rate 0.0625 kg/ha): 1.0 | Preemergence herbicidal rating CASOB ([1]; rate 0.1250 kg/ha): 1.0 | Preemergence herbicidal rating CASOB ([1]; rate 0.2500 kg/ha): 1.0 | Preemergence herbicidal rating ZEAMX ([2]; rate 0.0156 kg/ha): 0.0 | Preemergence herbicidal rating ZEAMX ([2]; rate 0.0313 kg/ha): 1.0 | Preemergence herbicidal rating ZEAMX ([2]; rate 0.0625 kg/ha): 1.0 | Preemergence herbicidal rating ZEAMX ([2]; rate 0.1250 kg/ha): 3.0 | Preemergence herbicidal rating ZEAMX ([2]; rate 0.2500 kg/ha): 7.0 | CYPIR herbicidal effect rating ([3]; 0.0313 kg/ha): 0.0 | CYPIR herbicidal effect rating ([3]; 0.0625 kg/ha): 2.0 | CYPIR herbicidal effect rating ([3]; 0.1250 kg/ha): 9.0 | CYPIR herbicidal effect rating ([3]; 0.2500 kg/ha): 9.0 | Postemergence herbicidal rating CHEAL ([4]; Rate 0.0158 kg/ha): 9.0 | Postemergence herbicidal rating CHEAL ([4]; Rate 0.0315 kg/ha): 9.0 | Postemergence herbicidal rating CHEAL ([4]; Rate 0.0630 kg/ha): 9.0 | Postemergence herbicidal rating GLXMAW ([5]; Rate 0.0158 kg/ha): 7.5 | Postemergence herbicidal rating GLXMAW ([5]; Rate 0.0315 kg/ha): 7.5 | Postemergence herbicidal rating GLXMAW ([5]; Rate 0.0630 kg/ha): 8.5 | Herbicidal rating CYPSE ([6]; Rate 0.0313 kg/ha): 0.0 | Herbicidal rating CYPSE ([6]; Rate 0.0625 kg/ha): 0.0 | Herbicidal rating CYPSE ([6]; Rate 0.1250 kg/ha): 0.0 | Herbicidal rating CYPSE ([6]; Rate 0.2500 kg/ha): 0.0 | Postemergence herbicidal rating AMBEL ([7]; Rate 0.0158 kg/ha): 9.0 | Postemergence herbicidal rating AMBEL ([7]; Rate 0.0315 kg/ha): 7.0 | Postemergence herbicidal rating AMBEL ([7]; Rate 0.0630 kg/ha): 9.0 | Postemergence herbicidal rating ECHCG ([8]; Rate 0.0158 kg/ha): 4.0 | Postemergence herbicidal rating ECHCG ([8]; Rate 0.0315 kg/ha): 6.0 | Postemergence herbicidal rating ECHCG ([8]; Rate 0.0630 kg/ha): 7.0 | Postemergence herbicidal rating ORYSAT ([9]; Rate 0.0158 kg/ha): 4.5 | Postemergence herbicidal rating ORYSAT ([9]; Rate 0.0315 kg/ha): 5.0 | Postemergence herbicidal rating ORYSAT ([9]; Rate 0.0630 kg/ha): 7.0 | Postemergence herbicidal rating GALAP ([10]; Rate 0.0158 kg/ha): 1.0 | Postemergence herbicidal rating GALAP ([10]; Rate 0.0315 kg/ha): 5.0 | Postemergence herbicidal rating GALAP ([10]; Rate 0.0630 kg/ha): 5.0 | Preemergence herbicidal rating GALAP ([11]; rate 0.0156 kg/ha): 0.0 | Preemergence herbicidal rating GALAP ([11]; rate 0.0313 kg/ha): 0.0 | Preemergence herbicidal rating GALAP ([11]; rate 0.0625 kg/ha): 0.0 | Preemergence herbicidal rating GALAP ([11]; rate 0.1250 kg/ha): 6.0 | Preemergence herbicidal rating GALAP ([11]; rate 0.2500 kg/ha): 9.0 | CYPSE herbicidal effect rating ([12]; 0.0313 kg/ha): 0.0 | CYPSE herbicidal effect rating ([12]; 0.0625 kg/ha): 0.0 | CYPSE herbicidal effect rating ([12]; 0.1250 kg/ha): 0.0 | CYPSE herbicidal effect rating ([12]; 0.2500 kg/ha): 0.0 | Postemergence herbicidal rating CASOB ([13]; Rate 0.0158 kg/ha): 1.0 | Postemergence herbicidal rating CASOB ([13]; Rate 0.0315 kg/ha): 2.0 | Postemergence herbicidal rating CASOB ([13]; Rate 0.0630 kg/ha): 6.0 | SAGPY herbicidal effect rating ([14]; 0.0313 kg/ha): 0.0 | SAGPY herbicidal effect rating ([14]; 0.0625 kg/ha): 0.0 | SAGPY herbicidal effect rating ([14]; 0.1250 kg/ha): 3.0 | SAGPY herbicidal effect rating ([14]; 0.2500 kg/ha): 6.0 | Postemergence herbicidal rating SETVI ([15]; Rate 0.0158 kg/ha): 9.0 | Postemergence herbicidal rating SETVI ([15]; Rate 0.0315 kg/ha): 9.0 | Postemergence herbicidal rating SETVI ([15]; Rate 0.0630 kg/ha): 8.0
